Measured values taken from patent publication US8273797B2, “Treating renal cancer using 4-[bis[2-[(methylsulfonyl)oxy]ethyl]amino]-2-methyl-benzaldehyde” (The United States of America, as represented by the …, priority 2005, dated 2012).
Several values for one entry are separate records, joined by “and”; a condition that tells them apart may be missing. Identical values can stand only once. Entries after “also recorded” stand apart in the source; their conditions may differ.

How the values were obtained:
[1] = tested on: xenograft; details: mouse, in vivo; cited from earlier work
[2] = tested on: RCC tumor cell lines; details: cited from earlier work
[3] = Toxicity (mortality, body weight loss, tolerability) in mice bearing intrarenal RXF-393 tumors; format: in vivo
Experimental: (§1) Intraperitoneal drug treatment schedules were established from the tumor doubling times because pharmacological data were not available. The dose levels were determined by establishing a single injection maximum tolerated dose (MTD) from which the experimental doses were calculated as: dose (mg/kg)=[(1.5×MTD)/no. of doses to be given]. Each experiment consisted of 20 control mice (based on statistical need) that received dosing vehicle (saline+0.05% Tween 80) on the same schedule as used for the test articles. Each treated group contained six mice. Tumor volumes were measured two to three times weekly and the tumor weights were calculated using the formula for a prolate ellipsoid: tumor weight (mg)={[length (in mm)]×[width (in mm)]^2}/2. The control tumors reached 500 mm^3 in 27 days for A498 and 12 days for RXF-393.
RXF-393 cells were injected directly into the caudal pole of the kidney on Day 0. The inoculated kidney was monitored for tumor growth in treated versus control mice by collecting and weighing the kidneys on day 25 post-implantation. In a preliminary experiment, NSC-281612 was administered intraperitoneally (IP) every fourth day for a total of 5 treatments (Q4D×5) starting 4 days after tumor implantation. […] In this study, NSC-281612 was assessed at 25 mg/kg (Group 2), 16.8 mg/kg (Group 3) and 11.3 mg/kg (Group 4). Due to toxicity, the 25 mg/kg dose was lowered to 8.3 mg/kg and only 4 doses were administered to Groups 2 and 3 (see Table 1).
To assess the impact of drug administration route, an experiment was conducted in which NSC-281612 was administered at doses of 8 mg/kg, 4 mg/kg and 2 mg/kg given intravenously (IV) on a Q4D×5 schedule with the first treatment given on day 4 post-tumor implantation. […] See, Table 2 for results and FIG. 6 for individual renal tumor weights for mice administered control only (vehicle), 8 mg/kg, 4 mg/kg, or 2 mg/kg intravenously on a Q4D×5 schedule.

[4] = tested on: A498 human renal tumor xenografts; test: Subcutaneous A498 xenograft tumor model; format: in vivo, athymic nude mice; details: NSC-281612 54 mg/kg Q4Dx3 from day 4 post implantation, compared with NSC-281817 120 mg/kg
Experimental: Tumor cells (e.g., A498 and RXF-393) were derived from established tumors maintained by serial passage in mice for a maximum of 10 passages. […] Male mice were used in all experiments. All animals were provided by NCI contractors at the NCI-Frederick production facility or Taconic Laboratories (Germantown, N.Y.).
as §1
Human tumor xenografts were generated by injection of 1×10^7 A498 tumor cells subcutaneously into athymic nude male mice. […] The tumor weight was calculated every fourth day beginning at day 7. […]

[5] = tested on: Dunning rat leukemia; details: Elderfield, private communication; no specific data disclosed; cited from earlier work
[6] = tested on: RXF-393 human renal tumor cells; test: Orthotopic intrarenal RXF-393 tumor model; format: in vivo, mice; details: for Median Tumor Weight (mg, Day 23) / T/C (%) / Median Tumor Weight (mg, Day 27): Rt. IV
[7] = Group 2: 25 mg/kg Q4Dx3 and a final dose of 8.3 mg/kg IP
[8] = 2 mg/kg/dose IV Q4Dx5 from day 4
[9] = 4 mg/kg/dose IV Q4Dx5 from day 4
[10] = 8 mg/kg/dose IV Q4Dx5 from day 4

For Cc1cc(N(CCOS(C)(=O)=O)CCOS(C)(=O)=O)ccc1C=Nc1ccc(-c2nc(Cc3ccccc3)sc2C)cc1 [NSC-281817], the “antitumor activity in xenograft-bearing mice” value (shortened to “antitumor activity”) [1] is listed as “only modest” and the “in vitro activity against RCC tumor cell lines” value (“in vitro activity” below) [2] is listed as “having in vitro activity”.

For CS(=O)(=O)OCCN(CCOS(C)(=O)=O)c1ccc(C=Nc2ccc(-c3csc(COc4ccccc4)n3)cc2)cc1 [compound 280074], the “antitumor activity” value [1] is given as “only modest” and the “in vitro activity” value [2] is given as “having in vitro activity”.

In the case of Cc1cc(N(CCOS(C)(=O)=O)CCOS(C)(=O)=O)ccc1C=Nc1ccc(-c2csc(-c3ccccc3)n2)c(Cl)c1 [compound 281613], the “antitumor activity” value [1] is listed as “only modest” and the “in vitro activity” value [2] is listed as “having in vitro activity”.

With Cc1cc(N(CCOS(C)(=O)=O)CCOS(C)(=O)=O)ccc1C=O [NSC-281612, 4-[bis[2-[(methylsulfonyl)oxy]ethyl]amino]-2-methyl-benzaldehyde] the tolerability ([3]; 8, 4 and 2 mg/kg IV Q4Dx5 from day 4) was “well tolerated”, the average weight loss [3, 7] was 27% and the mortality [3, 7] was “no mortality”. For the same compound, the mortality ([3]; Group 3: 16.8 mg/kg Q4Dx5 IP, 16.8 mg/kg) was “no mortality and 16.8 mg NSC-281612/kg Q4Dx5 IP. There was no mortality”, the mortality ([3]; Group 4: 11.3 mg/kg Q4Dx5 IP, 11.3 mg/kg) was “no mortality and 11.3 mg NSC-281612/kg Q4Dx5 IP. There was no mortality” and the “median tumor weight (effectiveness in limiting tumor weight)” value [4] was “at least as effective in limiting tumor weight as NSC-281617”. The “activity against Dunning rat leukemia” value [5] was “possesses activity against Dunning rat leukemia”, the “reduction in tumor mass” value ([6]; 2 mg/kg/dose IV Q4Dx5) was “did not achieve a level of statistical significance” and the “Day 22 Tumor Weight average” value [6, 8] was 270 mg. The “Day 22 Tumor Weight median” value [6, 8] was 284 mg, the “Median Tumor Weight (mg, Day 23)” value ([6]; 3.4 mg/kg/dose, QDx5, D5) was 11.5 mg and the “T/C (%)” value ([6]; 3.4 mg/kg/dose, QDx5, D5, Day 23) was 3%. For the same compound, the “Day 22 Tumor Weight average” value [6, 9] was 31 mg, the “Day 22 Tumor Weight median” value [6, 9] was 7 mg and the tumor free animals ([6]; 5 mg/kg/dose IP Q4Dx5) was “no tumor free animals”. For the same compound, the “tumor mass compared to the controls” value ([6]; 5 mg/kg/dose IP Q4Dx5) was “significant reduction in tumor mass”, the “Median Tumor Weight (mg, Day 23)” value ([6]; 5 mg/kg/dose, QDx5, D5) was 0 mg and the “T/C (%)” value ([6]; 5 mg/kg/dose, QDx5, D5, Day 23) was 0%. For the same compound, the “Median Tumor Weight (mg, Day 23)” value ([6]; 7.5 mg/kg/dose, QDx5, D5) was 0 mg, the “T/C (%)” value ([6]; 7.5 mg/kg/dose, QDx5, D5, Day 23) was 0% and the “Day 22 Tumor Weight average” value [6, 10] was 1 mg. For the same compound, the “Day 22 Tumor Weight median” value [6, 10] was 0 mg, the “reduction in tumor weights” value ([6]; 8 mg/kg/dose and 4 mg/kg/dose IV Q4Dx5) was “statistically significant reductions in the tumor weights” and the “Median Tumor Weight (mg, Day 27)” value ([6]; 25 mg/kg/dose, QDx1, D1O) was 0 mg. For the same compound, the “T/C (%)” value ([6]; 25 mg/kg/dose, QDx1, D1O, Day 27) was 0%, the “Median Tumor Weight (mg, Day 27)” value ([6]; 25 mg/kg/dose, QDx1, D5) was 340 mg and the “T/C (%)” value ([6]; 25 mg/kg/dose, QDx1, D5, Day 27) was 94%. For the same compound, the “Median Tumor Weight (mg, Day 27)” value ([6]; 25 mg/kg/dose, QDx1, D15) was 1 mg, the “T/C (%)” value ([6]; 25 mg/kg/dose, QDx1, D15, Day 27) was 0% and the “tumor burden at day 25 post-implantation” value ([6]; IP Q4Dx5 starting day 4, 25, 16.8 and 11.3 mg/kg (Groups 2-4)) was “markedly reduced the tumor burden; also recorded: active against intrarenal RXF-393 tumors at several doses”. The “decrease in tumor weight” value ([6]; daily dose for five sequential days, doses as low as 3.4 mg/kg/dose) was “statistically significant decrease in tumor weight”, the “efficacy of single dose” value ([6]; single 25 mg/kg dose on day 5 post-tumor implantation) was “ineffective” and the “animals with no detectable tumor” value ([6]; single 25 mg/kg dose on day 10 or 15 post-tumor implantation) was “seven often”.
